We go through one molecule from patent publication US12162861B2, “Dopamine D3 receptor selective antagonists/partial agonists; method of making; and use thereof” (THE UNITED STATES OF AMERICA, AS REPRESENTED BY THE …, priority 2016, dated 2024).

Assay [1] has as its system squirrel monkeys. Put plainly: Cue-induced reinstatement of drug seeking in squirrel monkeys. The assay is classed as in vivo, squirrel monkey (Saimiri sciureus). The text has this:
Cue-induced reinstatement: After the completion of priming-induced reinstatement testing, the monkeys were returned to baseline THC self-administration for 5-10 sessions. In subsequent extinction sessions, drug injections and all cues associated with drug injections were removed. This means that catheters were not connected to a pump and monkeys were not receiving infusions or visual cue presentations. After two or three days of extinction, we tested for cue-induced reinstatement of extinguished drug-seeking behavior after vehicle pretreatment (i.m.) by allowing delivery of a saline injection paired with the drug-associated cues. […] Each reinstatement test was a single session, which was preceded and followed by extinction session(s) with vehicle pretreatment (i.m.) 30 min before the sessions.
Δ^9-tetrahydrocannabinol (THC, NIDA Drug Supply Program, Bethesda, MD, USA) was dissolved in a vehicle containing 1% Tween 80, 1% ethanol, and saline to obtain stock solution (0.4 mg/ml) and further diluted with saline. In the reinstatement tests, THC was injected i.v. (1 ml/kg) immediately before the session.

In another assay the test system is Long-Evans rats. Put plainly: Responding during saline substitution (extinction) testing in rats. Format: in vivo, rat. Conditions: 5 or 15 mg/kg. The text has this: Experiment 2. […] Following the completion of the self-administration testing, rats were allowed to self-administer oxycodone for another 4 daily sessions. […] Fifteen min after injection, they were placed in the chambers and allowed to lever-press for saline infusion for 3 hr.

The test system of assay [2] is squirrel monkeys. Briefly: THC self-administration in squirrel monkeys (FR10). The assay is classed as in vivo, squirrel monkey (Saimiri sciureus). Conditions: FR10, 1, 3, and 10 mg/kg i.m. The text has this:
Subjects: Seven adult male squirrel monkeys (Saimiri sciureus) weighing 0.8 to 1.1 kg were housed in individual cages in a temperature- and humidity-controlled room with unrestricted access to water. […] The monkeys were trained to self-administer either THC or food pellets prior to the study. Monkeys were fed (approximately two hours after the session) a daily food ration consisting of biscuits of high protein monkey diet (Lab Diet 5045, PMI Nutrition International, Richmond, Indiana). The number of biscuits (8-14) was determined for each monkey individually to maintain their body weights at a constant level throughout the study. […]
Apparatus: Experimental chambers and other apparatus used in this study were the same as previously described (Justinova et al. 2003). […] The chair contained one response lever (Med Associates., USA) mounted on a transparent front wall; each press on the lever with a force greater than 0.2 N produced an audible click and was recorded as a response. […]
Self-administration procedure: Daily one-hour experimental sessions were typically conducted from Monday through Friday with each monkey. […] Before the start of the session, catheters were flushed with 1 ml of saline and one injection was delivered (calculated to fill the dead space of the catheter which was about 0.2 ml). […]

Structures are written as SMILES. “Also recorded” adds a separate entry of the source.

Consider `CCc1cc(Cl)c(OC)c(N2CCN(CC(O)CCNC(=O)c3cc4ccccc4[nH]3)CC2)c1` (racemic) [Compound 29, N-(4-(4-(3-chloro-5-ethyl-2-methoxyphenyl)piperazin-1-yl)-3-hydroxybutyl)-1H-indole-2-carboxamide], for which the “cue-induced reinstatement of drug seeking behavior” value with squirrel monkeys [1] is on record as “attenuated cue-induced reinstatement of drug seeking behavior”. Also, the “oxycodone seeking during extinction testing” value with Long-Evans rats is “inhibited oxycodone seeking during extinction testing”. The THC self-administration result was “attenuates THC self-administration; also recorded: dose-dependently blocked THC self-administration” in the assay on squirrel monkeys [2] (FIG. 7) and “attenuation of THC self-administration” with squirrel monkeys [2] (FIG. 7, listed as (±)-29).
